Source: patent US8993606B2, “Oral formulations for treating metal overload” (FerroKin BioSciences, Inc., priority 2011, dated 2015)
Like-named read-outs stand apart in the source and are kept apart here.

Key:
[1] = Aqueous solubility of salts; type: physicochemical; details: water; read-out: solubility in water
Text: Typically, oral formulations described herein facilitate solubilizing an active ingredient (e.g., a desazadesferrithiocin analog, salt or polymorph) at a desired amount or rate suitable for the treatment of metal overload. As used herein, the term “solubility” is generally intended to be synonymous with the term “aqueous solubility,” and refers to the ability, and the degree of the ability, of a compound to dissolve in water or an aqueous solvent or buffer, as might be found under physiological conditions. Aqueous solubility is, in and of itself, a useful quantitative measure, but it has additional utility as a correlate and predictor, with some limitations which will be clear to those of skill in the art, of oral bioavailability. Typically, a soluble compound is generally desirable, and the more soluble, the better. In liquid formulations, solubility is typically reported in mg/mL, but other measures, such as g/g, may be used. Solubilities typically deemed acceptable may range from 1 mg/mL into the hundreds or thousands of mg/mL.
Solubility may be measured under varying conditions. For example, it may be measured under conditions similar to those found in the body, such as at gastric pH or at physiologic or near-physiologic pH. “Gastric pH” as used herein means about pH 1. […]

[2] = tested on: adults with transfusional iron overload; assay: Example 10: efficacy study, liver iron concentration (LIC); type: in vivo, human; details: for % with net iron reduction / Mean net change in hepatic iron: first 24 weeks; for LIC, Week 12 / LIC, Week 24 / LIC, Week 48: patients entering extension study
Experimental: In this Example, the safety and efficacy of Compound 1 in adults with transfusional iron overload over 48 weeks of treatment was assessed. Diagnosis and transfusional iron burden of patients (including Asians, Blacks/African Americans, and Whites) at randomization are as follows: 38 patients diagnosed with β-thalassemia major, 2 patients diagnosed with α-thalassemia major, 2 diagnosed with β-thalassemia intermedia (transfusion>7/year), 6 diagnosed with HbE-β thalassemia, and 3 diagnosed with Sickle cell disease. The patients were divided into two dosing groups: 14.5 mg/kg/day and 29 mg/kg/day. Average liver iron content at baseline (mg/g dry weight) was 13.2 with SD 6.64 for the 14.5 mg/kg/day dosing group and 13.9 with SD 7.82 for the 29 mg/kg/day dosing group. Median serum ferritin (ng/ml) was 2564 for the 14.5 mg/kg/day dosing group and 2624 for the 29 mg/kg/day dosing group. Mean pre-transfusion average haemoglobin of previous 3 transfusions (g/dL) was 9.6 (with SD of 0.56) for the 14.5 mg/kg/day dosing group and 9.8 (with SD of 0.79) for the 29 mg/kg/day dosing group. Mean daily transfusion iron intake (mg/kg/d) was about 0.36 (ranging 0.22-0.84) for the 14.5 mg/kg/day dosing group and 0.38 (ranging 0.17-0.60) for the 29 mg/kg/day dosing group. See also FIGS. 7 and 8.

[3] = Example 5: single-dose study in iron-overloaded human subjects (PK); type: in vivo; details: for Tmax / AUC(0-inf) / AUC(0-t) / Cmax / half-life: human, plasma
Experimental: Example 5 was a single-dose, escalating study in iron-overloaded subjects. Men between the ages of 18-50 years qualified to participate if they were able to voluntarily give consent and had transfusional overload requiring treatment with an iron chelator and were willing to discontinue their chelation for a period of at least 7 days prior to screening and during the study. Eligible subjects had serum ferritin levels>300 ng/mL and ≦5000 ng/mL. Subjects had blood pressure in the normal range, ECG within normal limits and tested negative for drugs of abuse. Subjects were also HIV and Hepatitis B negative and agreed to use an approved method of contraception during the study.
(§1) The objectives of this study were to assess the safety, tolerability, and pharmacokinetics of ascending single doses of Compound 1. Additionally, dose proportionality and pharmacodynamics of Compound 1 were assessed. Four doses of Compound 1 (6, 10, 16, and 32 mg/kg), in capsule form, were evaluated in this study. Each dose level was tested in a single subject, with appropriate evaluation of safety done prior to escalating the dose. Following screening, the first subject was dosed and then confined to the clinical research unit for 24 hours to conduct safety and pharmacokinetic assessments. The subject was released from the clinic on Day 2 and returned daily for follow-up visits for 5 days post-dosing. This process was followed for each dose level.
All 4 subjects who received a dose of Compound 1 were included in the analysis of pharmacokinetic parameters.

iron overloaded subjects = assay: Safety: single-dose Phase 1 study in iron-overloaded subjects; type: in vivo
Experimental: as §1
Four iron overloaded subjects were enrolled and completed the study. Each subject received a single oral dose of Compound 1. Doses were 6, 10, 16 and 32 mg/kg. […] Three TEAEs were reported for a single subject who received 32 mg/kg of Compound 1. All 3 TEAEs occurred at the site of venipuncture used for blood sampling: bruising at cannula site on the left arm and bruising at 2 venipuncture sites on the left arm and then the right arm.

healthy adult subjects = assay: Safety: bioavailability study oral capsules versus oral solution in healthy subjects; type: in vivo
Experimental: This study was a study in healthy adult subjects designed to compare the bioavailability of Compound 1 when administered as an oral capsule or solution. 24 subjects were enrolled and 22 completed the study: Subjects received a single oral dose of 16 mg/kg of Compound 1 as an oral capsule or as a solution. […] Treatment-emergent AEs were reported for 14 of the 24 subjects receiving Compound 1 (58%). […] TEAEs included headache (3 subjects), fever (2 subjects), nausea (2 subjects), lethargy (2 subjects), and loss of appetite (1 subject).

[4] = single oral dose 6 mg/kg, subject 1
[5] = single oral dose 10 mg/kg, subject 2
[6] = single oral dose 16 mg/kg, subject 3
[7] = single oral dose 32 mg/kg, subject 4

Which results are given for COCCOCCOCCOc1cccc(C2=N[C@@](C)(C(=O)O)CS2)c1O [Compound 1, (S)-4,5-Dihydro-2-[2-hydroxy-3-(3,6,9-trioxadecyloxy)phenyl]-4-methyl-4-thiazolecarboxylate magnesium hydroxide]?
solubility [1]: ≥ 48 mg/mL; % with net iron reduction ([2]; 14.5 mg/kg): 29%; Mean net change in hepatic iron ([2]; 14.5 mg/kg): 3.1 mg/g-dw; % with net iron reduction ([2]; 29 mg/kg): 44%; Mean net change in hepatic iron ([2]; 29 mg/kg): −0.3 mg/g-dw; LIC, Week 12 ([2]; initial dose 14.5 mg/kg/day): 13.7 (1.74); LIC, Week 24 ([2]; initial dose 14.5 mg/kg/day): 13.6 (1.94); LIC, Week 48 ([2]; initial dose 14.5 mg/kg/day): 11.7 (1.46); LIC, Week 12 ([2]; initial dose 29 mg/kg/day): 13.6 (2.04); LIC, Week 24 ([2]; initial dose 29 mg/kg/day): 12.8 (1.79); LIC, Week 48 ([2]; initial dose 29 mg/kg/day): 11.8 (2.04); effect on liver iron concentration in iron overload patients ([2]; once daily oral, dose as low as 14.5 mg/kg of body weight): reduces liver iron concentration; total fraction of oral dose excreted in urine over 24 hour, average ([3]; 4 dose levels): 39%; dose proportionality of Cmax and AUC ([3]; 6-32 mg/kg dose range): dose-proportional; plasma concentrations at 24 hours post-dose ([3]; all subjects, 6, 10, 16 and 32 mg/kg): < 1 % of Cmax; Tmax ([3]; single oral dose 6 mg/kg (360 mg), subject 1, read-out: tmax): 1 h; AUC(0-inf) [3, 4]: 46300 ng·h/mL; AUC(0-t) [3, 4]: 45900 ng·h/mL; Cmax [3, 4]: 14900 ng/mL; Tmax ([3]; single oral dose 10 mg/kg (583 mg), subject 2, read-out: tmax): 0.77 h; AUC(0-inf) [3, 5]: 69700 ng·h/mL; AUC(0-t) [3, 5]: 69200 ng·h/mL; Cmax [3, 5]: 35400 ng/mL; Tmax ([3]; single oral dose 16 mg/kg (1288 mg), subject 3, read-out: tmax): 1 h; AUC(0-inf) [3, 6]: 122000 ng·h/mL; AUC(0-t) [3, 6]: 122000 ng·h/mL; Cmax [3, 6]: 38500 ng/mL; Tmax ([3]; single oral dose 32 mg/kg (2214.4 mg), subject 4, read-out: tmax): 1 h; AUC(0-inf) [3, 7]: 159000 ng·h/mL; AUC(0-t) [3, 7]: 157000 ng·h/mL; Cmax [3, 7]: 47600 ng/mL; half-life ([3]; male, oral, 6-32 mg/kg single dose, read-out: terminal half-life, range): 16 to 30 h; half-life ([3]; male, oral, averaged across all dose levels, read-out: mean t1/2 (converted)): 23.7 h; Tmax ([3]; male, oral, averaged across all dose levels, read-out: mean tmax): 0.925 h; total fraction of oral dose excreted in urine over 24 hour ([3]; range across the 4 dose levels): 28-51%; CL/F [3, 4]: 7.9 L/h; CL/F [3, 5]: 8.4 L/h; CL/F [3, 6]: 10.6 L/h; CL/F [3, 7]: 14.1 L/h; tolerability (iron overloaded subjects; single oral dose 6, 10, 16, 32 mg/kg): well tolerated; clinical laboratory assessments, vital sign measurements, ECG parameters (iron overloaded subjects; single oral dose 6-32 mg/kg): no clinically significant changes; deaths, SAEs, withdrawals due to AEs (iron overloaded subjects; single oral dose 6-32 mg/kg): no deaths, no serious adverse events (SAEs), and no withdrawals due to AEs; TEAEs reported (iron overloaded subjects; single subject who received 32 mg/kg, all at site of venipuncture): Three; subjects with treatment-emergent AEs (healthy adult subjects; 14 of the 24 subjects): 58%; TEAE fever (healthy adult subjects; 24 subjects): 2 subjects; TEAE headache (healthy adult subjects; 24 subjects): 3 subjects; TEAE lethargy (healthy adult subjects; 24 subjects): 2 subjects; TEAE loss of appetite (healthy adult subjects; 24 subjects): 1 subject; TEAE nausea (healthy adult subjects; 24 subjects): 2 subjects; deaths, SAEs, withdrawals as the result of an AE (healthy adult subjects; single oral dose 16 mg/kg): no deaths, no SAEs, and no withdrawals as the result of an AE; intensity of all AEs (healthy adult subjects; single oral dose 16 mg/kg): mild or moderate intensity; tolerability (healthy adult subjects; single oral dose 16 mg/kg, capsule or solution): well tolerated
